{"source": "ChEMBL document CHEMBL6177982", "about": "“Structural Optimization of Pyrazole Compounds as Hsp90 Regulators with Enhanced Antitumor Activity” (J Med Chem, 2025)", "key": {"[1]": {"test": "Half-life in male Sprague-Dawley rat at 5 mg/kg, ip by LC-MS/MS analysis", "assay_type": "ADME, organism-based", "conditions": "in vivo"}, "[2]": {"test": "Metabolic stability in human liver microsomes assessed as clearance at 1 uM preincubated for 5 mins followed by NADPH addition and measured up to 120 mins by LC-MS/MS analysis", "assay_type": "ADME, Microsome", "conditions": "time < 125 min, read-out: CLH"}, "[3]": {"biological_target": "Heat shock protein HSP 90-beta/Hsp90 co-chaperone Cdc37 (Homo sapiens) (UniProt P08238+Q16543)", "test": "Inhibition of Myc-tagged HSP90 (unknown origin)/CDC37 (unknown origin) protein-protein interaction transfected in human HCT-116 cells incubated for 12 hrs by co-immunoprecipitation analysis", "assay_type": "cell-based", "conditions": "dose 0.5-5 µM"}, "HCT-116 [4]": {"test_system": "HCT-116", "test": "Antiproliferative activity against human HCT-116 cells assessed as inhibition of cell proliferation incubated for 24 hrs by MTT assay", "assay_type": "functional, cell-based", "conditions": "HCT-116, 24 h"}, "HT-29": {"test_system": "HT-29", "test": "Antiproliferative activity against human HT-29 cells assessed as inhibition of cell proliferation incubated for 72 hrs by MTT assay", "assay_type": "functional, cell-based", "conditions": "HT-29, 72 h"}, "[5]": {"test": "Tmax in male Sprague-Dawley rat at 1 mg/kg, iv by LC-MS/MS analysis", "assay_type": "ADME, organism-based", "conditions": "in vivo"}, "HCT-116 [6]": {"test_system": "HCT-116", "test": "Inhibition of Myc-tagged HSP90 (unknown origin)/HSF1 (unknown origin) protein-protein interaction transfected in human HCT-116 cells at 1 to 5 uM incubated for 12 hrs by co-immunoprecipitation analysis", "assay_type": "cell-based", "conditions": "dose 1-5 µM"}, "Homo sapiens": {"species": "Homo sapiens", "test": "Covalent binding affinity to His-tagged C-terminal HSP90 C598A mutant (unknown origin) assessed as two phase melting curve at 100 uM incubated for 4 hrs by SYPRO fluorescent dye based thermal shift assay"}, "[7]": {"biological_target": "T1, Heat shock protein HSP 90-alpha (Homo sapiens, UniProt P07900)", "test": "Covalent binding affinity to recombinant full-length HSP90alpha (unknown origin) at C598 residue assessed as appearance of compound-modified peptide incubated for 12 hrs by LC-MS/MS analysis"}, "[8]": {"test": "Toxicity in female Balb/c nude mouse xenografted with human HCT-116 cells assessed as pathological changes in lung at 5 to 30 mg/kg, ip administered every two days for 14 days by H and E staining based analysis", "assay_type": "organism-based", "conditions": "in vivo, 336 h, dose 5-30 mg/kg, time 14 day"}, "[9]": {"biological_target": "Heat shock protein HSP90 (Homo sapiens) (UniProt P07900+P08238)", "test": "Induction of thermal stabilization of HSP90 in human HCT-116 cells at 10 uM at 53 to 55 degreeC by CETSA based Western blot analysis", "assay_type": "cell-based"}, "[10]": {"test": "Cmax in male Sprague-Dawley rat at 5 mg/kg, ip by LC-MS/MS analysis", "assay_type": "ADME, organism-based", "conditions": "in vivo"}, "[11]": {"test": "Bioavailability in male Sprague-Dawley rat at 5 mg/kg, ip by LC-MS/MS analysis", "assay_type": "ADME, organism-based", "conditions": "in vivo"}, "[12]": {"biological_target": "T1, Heat shock protein HSP 90-alpha", "test": "Binding affinity to HSP90alpha (unknown origin) assessed as dissociation constant by ITC analysis"}, "[13]": {"test": "Metabolic stability in rat liver microsomes assessed as parent compound remaining at 1 uM preincubated for 5 mins followed by NADPH addition and measured after 30 mins by LC-MS/MS analysis", "assay_type": "ADME, Microsome", "conditions": "time 35 min, read-out: Stability"}, "[14]": {"test": "AUC (0 to infinity) in male Sprague-Dawley rat at 10 mg/kg, IG by LC-MS/MS analysis", "assay_type": "ADME, organism-based", "conditions": "in vivo, po"}, "HCT-116 [15]": {"test_system": "HCT-116", "test": "Induction of AKT degradation in human HCT-116 cells incubated for 24 hrs by Western blot analysis", "assay_type": "cell-based", "conditions": "dose 0.1-5 µM"}, "[16]": {"test": "Toxicity in female Balb/c nude mouse xenografted with human HCT-116 cells assessed as effect on body weight at 5 to 30 mg/kg, ip administered every two days for 14 days", "assay_type": "organism-based", "conditions": "in vivo, 336 h, dose 5-30 mg/kg, time 14 day"}, "HCT-116 [17]": {"test_system": "HCT-116", "test": "Upregulation of HSP90 level in human HCT-116 cells at 0.1 to 5 uM incubated for 24 hrs by Western blot analysis", "assay_type": "functional, cell-based", "conditions": "dose 0.1-5 µM"}, "HCT-116 [18]": {"test_system": "HCT-116", "test": "Antiproliferative activity against human HCT-116 cells assessed as inhibition of cell proliferation incubated for 72 hrs by MTT assay", "assay_type": "functional, cell-based", "conditions": "HCT-116, 72 h"}, "[19]": {"test": "AUC (0 to infinity) in male Sprague-Dawley rat at 1 mg/kg, iv by LC-MS/MS analysis", "assay_type": "ADME, organism-based", "conditions": "in vivo"}, "[20]": {"test": "Toxicity in female Balb/c nude mouse xenografted with human HCT-116 cells assessed as pathological changes in kidney at 5 to 30 mg/kg, ip administered every two days for 14 days by H and E staining based analysis", "assay_type": "organism-based", "conditions": "in vivo, 336 h, dose 5-30 mg/kg, time 14 day"}, "[21]": {"test": "Permeability of compound at pH 7.4 incubated for 4 hrs by PAMPA based UV analysis", "assay_type": "ADME", "conditions": "read-out: permeability"}, "Mus musculus [22]": {"test_system": "Mus musculus", "test": "In vivo induction of CDK4 degradation in female Balb/c nude mouse xenografted with human HCT-116 cells assessed as decrease in CDK4 protein level in tumor at 5 to 30 mg/kg, ip administered every two days for 14 days by Western blot analysis", "assay_type": "functional, organism-based", "conditions": "dose 5-30 mg/kg, time 14.0 day"}, "HCT-116 [23]": {"test_system": "HCT-116", "test": "Antitumor activity against human HCT-116 cells xenografted in female Balb/c nude mouse assessed as inhibition of tumor growth at 5 to 30 mg/kg, ip administered every two days for 14 days", "assay_type": "functional, organism-based", "conditions": "dose 5-30 mg/kg, time 14.0 day"}, "Mus musculus [24]": {"test_system": "Mus musculus", "test": "Upregulation of HSP70 protein level in female Balb/c mouse tumor xenografted with human HCT-116 cells at 5 to 30 mg/kg, ip administered every two days for 14 days by Western blot analysis", "assay_type": "functional, organism-based", "conditions": "dose 5-30 mg/kg, time 14.0 day"}, "[25]": {"test": "Cmax in male Sprague-Dawley rat at 1 mg/kg, iv by LC-MS/MS analysis", "assay_type": "ADME, organism-based", "conditions": "in vivo"}, "[26]": {"test": "Toxicity in female Balb/c nude mouse xenografted with human HCT-116 cells assessed as effect on liver weight at 5 to 30 mg/kg, ip administered every two days for 14 days", "assay_type": "organism-based", "conditions": "in vivo, 336 h, dose 5-30 mg/kg, time 14 day"}, "[27]": {"test": "Toxicity in female Balb/c nude mouse xenografted with human HCT-116 cells assessed as effect on lung weight at 5 to 30 mg/kg, ip administered every two days for 14 days", "assay_type": "organism-based", "conditions": "in vivo, 336 h, dose 5-30 mg/kg, time 14 day"}, "[28]": {"test": "Metabolic stability in rat liver microsomes assessed as clearance at 1 uM preincubated for 5 mins followed by NADPH addition and measured up to 120 mins by LC-MS/MS analysis", "assay_type": "ADME, Microsome", "conditions": "time < 125 min, read-out: CLH"}, "[29]": {"test": "Toxicity in female Balb/c nude mouse xenografted with human HCT-116 cells assessed as pathological changes in heart at 5 to 30 mg/kg, ip administered every two days for 14 days by H and E staining based analysis", "assay_type": "organism-based", "conditions": "in vivo, 336 h, dose 5-30 mg/kg, time 14 day"}, "HCT-116 [30]": {"test_system": "HCT-116", "test": "Inhibition of Myc-tagged HSP90 (unknown origin)/AKT(unknown origin) protein-protein interaction transfected in human HCT-116 cells at 1 to 5 uM incubated for 12 hrs by co-immunoprecipitation analysis", "assay_type": "cell-based", "conditions": "dose 1-5 µM"}, "[31]": {"test": "AUC (0 to infinity) in male Sprague-Dawley rat at 5 mg/kg, ip by LC-MS/MS analysis", "assay_type": "ADME, organism-based", "conditions": "in vivo"}, "HCT-116 [32]": {"test_system": "HCT-116", "test": "Induction of CDK4 degradation in human HCT-116 cells incubated for 24 hrs by Western blot analysis", "assay_type": "cell-based", "conditions": "dose 0.1-5 µM"}, "[33]": {"test": "Metabolic stability in human liver microsomes assessed as terminal elimination half-life at 1 uM preincubated for 5 mins followed by NADPH addition and measured up to 120 mins by LC-MS/MS analysis", "assay_type": "ADME, Microsome", "conditions": "time < 125 min, read-out: LambdaZ (converted)"}}, "note": "Active and inactive are the calls of the source. No cut-off for these calls is given here.", "data": [{"smiles": "O=S(=O)(/C=C/c1cn(-c2ccccc2)nc1-c1cccnc1)c1ccccc1", "values": [{"measurement": "half-life", "setting": "[1]", "value": 82.2, "unit": "min"}, {"measurement": "microsomal CLint at 1 µM", "setting": "[2]", "value": 26, "unit": "µL/min/mg"}, {"measurement": "inhibition", "setting": "[3]", "value": "Dose-dependent-effect"}, {"measurement": "IC50", "setting": "HCT-116 [4]", "value": 6.36, "unit": "µM"}, {"measurement": "IC50", "setting": "HT-29", "value": 2020, "unit": "nM"}, {"measurement": "Tmax", "setting": "[5]", "value": 1.02, "unit": "min"}, {"measurement": "inhibition", "setting": "HCT-116 [6]", "value": "inactive"}, {"measurement": "Activity", "setting": "Homo sapiens", "value": "inactive"}, {"measurement": "Activity", "setting": "[7]", "value": "Active"}, {"measurement": "Activity", "setting": "[8]", "value": "Non-toxic"}, {"measurement": "Activity", "setting": "[9]", "value": "Active"}, {"measurement": "Cmax", "setting": "[10]", "value": 8350, "unit": "ng/mL"}, {"measurement": "bioavailability", "setting": "[11]", "value": 92.5, "unit": "%"}, {"measurement": "Kd", "setting": "[12]", "value": 3.96, "unit": "µM"}, {"measurement": "remaining at 0.5 h, 1 µM", "setting": "[13]", "value": 58, "unit": "%"}, {"measurement": "AUC(0-inf)", "setting": "[14]", "value": 9810, "unit": "ng·h/mL"}, {"measurement": "Activity", "setting": "HCT-116 [15]", "value": "Dose-dependent-effect"}, {"measurement": "Activity", "setting": "[16]", "value": "Non-toxic"}, {"measurement": "Activity", "setting": "HCT-116 [17]", "value": "inactive"}, {"measurement": "IC50", "setting": "HCT-116 [18]", "value": 1080, "unit": "nM"}, {"measurement": "AUC(0-inf)", "setting": "[19]", "value": 1460, "unit": "ng·h/mL"}, {"measurement": "Activity", "setting": "[20]", "value": "Non-toxic"}, {"measurement": "Papp at 4 h", "setting": "[21]", "value": 42.6, "unit": "×10⁻⁶ cm/s"}, {"measurement": "Activity", "setting": "Mus musculus [22]", "value": "Active"}, {"measurement": "Activity", "setting": "HCT-116 [23]", "value": "Active"}, {"measurement": "Activity", "setting": "Mus musculus [24]", "value": "inactive"}, {"measurement": "Cmax", "setting": "[25]", "value": 3680, "unit": "ng/mL"}, {"measurement": "Activity", "setting": "[26]", "value": "Non-toxic"}, {"measurement": "Activity", "setting": "[27]", "value": "Non-toxic"}, {"measurement": "microsomal CLint at 1 µM", "setting": "[28]", "value": 55, "unit": "µL/min/mg"}, {"measurement": "Activity", "setting": "[29]", "value": "Non-toxic"}, {"measurement": "inhibition", "setting": "HCT-116 [30]", "value": "Active"}, {"measurement": "AUC(0-inf)", "setting": "[31]", "value": 6770, "unit": "ng·h/mL"}, {"measurement": "Activity", "setting": "HCT-116 [32]", "value": "Dose-dependent-effect"}, {"measurement": "half-life at 1 µM", "setting": "[33]", "value": 53.4, "unit": "min"}]}]}
